Assay results as given in US20040106626A1, “6-Membered unsaturated heterocyclic compounds useful for selective inhibition of the coagulation cascade” (Pharmacia Corporation, priority 2001, published 2004).

Key:
Type in all cases: biochemical
[1] = tested on: Normal human pooled plasma; experiment: Prothrombin time (PT) clotting assay; conditions: concentration at which prothrombin time is prolonged by 2x normal, reported as less than or greater than 50 uM
Protocol: The prothrombin time (PT) assay is a clotting assay that is used to determine deficiencies of clotting factor activity in the extrinsic pathway. The assay measures time to clotting after the addition of thromboplastin (human tissue factor). Normal human pooled plasma is incubated with 100 uM compound or saline in a coagulation machine. Thromboplastin is added and time to clotting is measured. Compounds with greater than 3×normal PT of 11.0 seconds are further analyzed by concentration response to determine at what concentration the prothrombin time is prolonged by 2×normal.

Human thrombin = target: T1, Human thrombin (Homo sapiens, UniProt P00734); experiment: Thrombin assay (chromogenic substrate); conditions: reported only as less than or greater than 30 uM; read-out: Thrombin (II) IC50
T1 construct: converts prothrombin (II) to thrombin (IIa); purchased Calbiochem, La Jolla, Calif
Protocol: Percent inhibition of thrombin activity is calculated from OD405 nm value from the experimental and control sample.
(§1) Recombinant human VIIa was purchased from American Diagnostica, Greenwich CT and chromogenic substrate N-methylsulfonyl-D-phe-gly-arg-p-nitroaniline was prepared by American Peptide Company, Inc., Sunnyvale, Calif. Factor Xa was obtained from Enzyme Research Laboratories, South Bend Ind., thrombin from Calbiochem, La Jolla, Calif., and trypsin and L-BAPNA from Sigma, St. Louis Mo.

Human factor Xa = target: T2, Human factor Xa (Homo sapiens, UniProt P00742); experiment: Xa assay (chromogenic substrate S-2765); conditions: reported only as less than or greater than 30 uM; read-out: Factor Xa (II) IC50
T2 construct: purchased Enzyme Research Laboratories, South Bend Ind
Protocol: Human factor Xa (0.3 nM) and 0.15 mM -a-Benzyloxycarbonyl-D-arginyl-L-glycyl-L-arginine-p-nitroaniline-dihydrochloride (S-2765) are added to a 96-well assay plate containing either inhibitor or buffer (50 mM Tris-HCl, pH 8.0, 100 mM NaCl, 0.1% BSA). The reaction, in a final volume of 100 ul is measured immediately at 405 nm to determine background absorbance. The plate is incubated at room temperature for 60 min, at which time the rate of hydrolysis of the substrate is measured by monitoring the reaction at 405 nm for the release of p-nitroaniline. Percent inhibition of Xa activity is calculated from OD405 nm value from the experimental and control sample.
Recombinant soluble TF, consisting of amino acids 1-219 of the mature protein sequence was expressed in E. coli and purified using a Mono Q Sepharose FPLC. Recombinant human VIIa was purchased from American Diagnostica, Greenwich CT and chromogenic substrate N-methylsulfonyl-D-phe-gly-arg-p-nitroaniline was prepared by American Peptide Company, Inc., Sunnyvale, Calif. Factor Xa was obtained from Enzyme Research Laboratories, South Bend Ind., thrombin from Calbiochem, La Jolla, Calif., and trypsin and L-BAPNA from Sigma, St. Louis Mo. The chromogenic substrates S-2765 and S-2238 were purchased from Chromogenix, Sweden.

[2] = target: T3, recombinant soluble tissue factor and recombinant human factor VIIa (TF-VIIa) (Homo sapiens, UniProt P08709); experiment: TF-VIIa assay (chromogenic substrate hydrolysis); conditions: reported only as less than or greater than 0.1 uM
T3 construct: conversion of coagulation factor VII to VIIa by factor Xa; purchased American Diagnostica, Greenwich CT; host or cells: soluble TF made in house in E. coli
Protocol: In this assay 100 nM recombinant soluble tissue factor and 2 nM recombinant human factor VIIa are added to a 96-well assay plate containing 0.4 mM of the substrate, N-methylsulfonyl-D-phe-gly-arg-p-nitroaniline and either inhibitor or buffer (5 mM CaCl2, 50 mM Tris-HCl, pH 8.0, 100 mM NaCl, 0.1% BSA). […] Percent inhibition of TF-VIIa activity is calculated from OD405 nm value from the experimental and control sample.
as §1

T3 sequence (P08709 213-466 limits assumed): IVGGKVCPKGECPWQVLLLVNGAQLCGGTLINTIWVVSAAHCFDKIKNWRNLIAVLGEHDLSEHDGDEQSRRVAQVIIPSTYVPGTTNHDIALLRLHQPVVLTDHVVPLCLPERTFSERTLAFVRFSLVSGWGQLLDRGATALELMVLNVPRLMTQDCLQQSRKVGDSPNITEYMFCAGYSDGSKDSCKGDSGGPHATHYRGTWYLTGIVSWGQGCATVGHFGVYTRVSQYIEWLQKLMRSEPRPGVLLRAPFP
T3 sequence (P08709 61-212 limits assumed): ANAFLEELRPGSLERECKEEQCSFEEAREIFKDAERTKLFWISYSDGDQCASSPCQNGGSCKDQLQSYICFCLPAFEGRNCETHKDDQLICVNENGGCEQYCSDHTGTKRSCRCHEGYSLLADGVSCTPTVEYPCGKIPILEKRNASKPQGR
T3 sequence (P13726 33-251 partner limits assumed): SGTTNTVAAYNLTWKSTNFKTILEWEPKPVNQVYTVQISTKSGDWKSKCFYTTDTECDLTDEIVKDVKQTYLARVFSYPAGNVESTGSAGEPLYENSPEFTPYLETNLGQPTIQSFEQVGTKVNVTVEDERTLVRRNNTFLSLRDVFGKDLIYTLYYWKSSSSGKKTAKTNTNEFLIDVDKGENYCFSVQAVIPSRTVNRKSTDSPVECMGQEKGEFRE
T2 sequence (P00742 235-488 limits assumed): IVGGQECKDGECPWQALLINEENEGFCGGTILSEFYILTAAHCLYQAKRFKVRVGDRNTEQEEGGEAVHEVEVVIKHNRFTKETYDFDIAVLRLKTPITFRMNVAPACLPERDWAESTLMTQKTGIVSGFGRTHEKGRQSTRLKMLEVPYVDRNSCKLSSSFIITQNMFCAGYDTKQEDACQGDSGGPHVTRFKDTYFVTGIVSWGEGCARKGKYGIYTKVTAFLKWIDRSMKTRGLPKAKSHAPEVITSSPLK
T2 sequence (P00742 41-179 limits assumed): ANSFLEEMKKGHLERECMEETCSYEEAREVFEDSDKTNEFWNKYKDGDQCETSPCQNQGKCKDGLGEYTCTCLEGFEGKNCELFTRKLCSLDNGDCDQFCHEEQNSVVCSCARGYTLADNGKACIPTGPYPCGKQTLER

Compound | IC50 (Human thrombin) [µM] | IC50 (Human factor Xa) [µM] | IC50 [2] [nM] | PT (Prothrombin time) 2xPT [1] [µM]
CC(C)Nc1ncc(-c2cc(N)cc(C(=O)O)c2)n(CC(=O)NCc2ccc(C(=N)N)cc2)c1=O [Example 16, 3-amino-5-[1-[2-({4-[amino(imino)methyl]benzyl}amino)-2-oxoethyl]-5-(isopropylamino)-6-oxo-1,6-dihydropyrazin-2-yl]benzoic Acid Trifluoracetate] |  |  |  | <50.0
CC(C)Nc1ncc(-c2cc(N)cc(C(=O)NCc3cccc(F)c3)c2)n(CC(=O)NCc2ccc(C(=N)N)cc2)c1=O.O=C(O)C(F)(F)F.O=C(O)C(F)(F)F [Example 29] |  |  |  | <50.0
CC(C)NC(=O)c1cc(N)cc(-c2cnc(NC(C)C)c(=O)n2CC(=O)NCc2ccc(C(=N)N)cc2)c1 [Example 60] | < 30 | > 30 | < 100 | 
CC(C)Nc1ncc(-c2cc(N)cc(-c3ccccc3)c2)n(CC(=O)NCc2ccc(C(=N)N)cc2)c1=O [Example 69, 2-[6-(5-amino-1,1′-biphenyl-3-yl)-3-(isopropylamino)-2-oxopyrazin-1 (2H)-yl]-N-{4-[amino(imino)methyl]benzyl}acetamide] | > 30 | > 30 | < 100 | 
CC(C)Nc1ncc(-c2cc(N)cc(N)c2)n(CC(=O)NCc2cc(O)c(C(=N)N)c(F)c2)c1=O.O=C(O)C(F)(F)F [Example 117] |  |  |  | <50.0
CC(C)Nc1ncc(-c2cc(N)cc(C(F)(F)F)c2)n(CC(=O)NCc2c(F)c(O)c(C(=N)N)c(F)c2F)c1=O [Example 126] | < 30 | > 30 | < 100 | 
CC(C)Nc1ncc(-c2cc(N)cc(NC(=O)C(C)(C)C)c2)n(CC(=O)NCc2ccc(C(=N)N)cc2)c1=O [Example 132] | < 30 | > 30 | < 100 | 
CCCCNc1cc(N)cc(-c2cnc(NC(C)C)c(=O)n2CC(=O)NCc2ccc(C(=N)N)cc2)c1.O=C(O)C(F)(F)F.O=C(O)C(F)(F)F [Example 145] |  |  | < 100 | <50.0
CC(C)Nc1ncc(-c2cc(N)cc(NCC3CCNCC3)c2)n(CC(=O)NCc2ccc(C(=N)N)cc2)c1=O.O=C(O)C(F)(F)F.O=C(O)C(F)(F)F [Example 146] |  |  | < 100 | <50.0
CC(C)Nc1ncc(-c2cc(N)cc(NCC3CCCNC3)c2)n(CC(=O)NCc2ccc(C(=N)N)cc2)c1=O.O=C(O)C(F)(F)F.O=C(O)C(F)(F)F (centres unmarked) [Example 147] |  |  | < 100 | <50.0
CC(C)Nc1ncc(-c2cc(N)cc(NCC(C)(C)C)c2)n(CC(=O)NCc2ccc(C(=N)N)cc2)c1=O.O=C(O)C(F)(F)F.O=C(O)C(F)(F)F [Example 152] |  |  |  | <50.0
CC(C)Nc1ncc(-c2cc(N)cc(NCCC(C)(C)C)c2)n(CC(=O)NCc2ccc(C(=N)N)cc2)c1=O.O=C(O)C(F)(F)F.O=C(O)C(F)(F)F [Example 153] |  |  |  | <50.0
CC(C)Nc1ncc(-c2cc(N)cc(C(F)(F)F)c2)n(CC(=O)NCc2ccc(C(=N)N)c(F)c2)c1=O.Cl [Example 154, N-{4-[amino(imino)methyl]-3-fluorobenzyl}-2-[6-[3-amino-5-(trifluoromethyl)phenyl]-3-(isopropylamino)-2-oxopyrazin-1 (2H)-yl]acetamide] |  |  |  | >50.0
CC[C@@H](C)NC(=O)c1cc(N)cc(-c2cnc(NC(C)C)c(=O)n2CC(=O)NCc2c(OC)cc(C(=N)N)cc2OC)c1 [Example 197] | > 30 | > 30 | > 100 | 
COCCOCCOCCOCCOCCOCCOC(=O)c1cc(N)cc(-c2cnc(NC(C)C)c(=O)n2CC(=O)NCc2ccc(C(=N)N)cc2)c1 [Example 201] | > 30 | > 30 | < 100 | 
CC[C@H](C)NC(=O)c1cc(N)cc(-c2cnc(N[C@@H](C)CO)c(=O)n2CC(=O)NCc2ccc(C(=N)N)cc2)c1 [Example 208] | < 30 | > 30 | < 100 | 
CC[C@H](C)NC(=O)c1cc(N)cc(-c2cnc(NC(C)C)c(=O)n2CC(=O)NCc2c(O)cc(C(=N)N)cc2OCc2ccccc2)c1 [Example 242] | > 30 | > 30 | < 100 | 
CC[C@@H](C)NC(=O)c1cc(N)cc(-c2cnc(NC(C)(C)C)c(=O)n2CC(=O)NCc2ccc(C(=N)N)cc2)c1 [Example 256, 3-amino-5-[1-[2-({4-[amino(imino)methyl]benzyl}amino)-2-oxoethyl]-5-(tert-butylamino)-6-oxo-1,6-dihydropyrazin-2-yl]-N-[(lR)-1-methylpropyl]benzamide bis(trifluoroacetate)] | < 30 | > 30 | < 100 | 
CC[C@H](C)NC(=O)c1cc(N)cc(-c2cnc(NC)c(=O)n2CC(=O)NCc2ccc(C(=N)N)cc2)c1 [Example 257] | > 30 | > 30 | < 100 | 

More lines, main results first:

IC50 (Human thrombin) [µM] | IC50 (Human factor Xa) [µM] | IC50 [2] [nM] | Compound | PT (Prothrombin time) 2xPT [1] [µM]
< 30 | > 30 | < 100 | CC(C)Nc1ncc(-c2cc(N)cc(F)c2)n(CC(=O)NCc2ccc(C(=N)N)cc2)c1=O [Example 52] | 
> 30 | > 30 | > 100 | CC(C)Nc1ncc(-c2cc(N)cc(C(F)(F)F)c2)n(CC(=O)NCc2ccc(C(=N)N)c(O)c2F)c1=O [Example 97] | 
 |  | < 100 | CCC(C)NC(=O)c1cc(N)cc(-c2cnc(NC(C)C)c(=O)n2CC(=O)NCc2ccc(C(=N)N)c(O)c2)c1 (centres unmarked) [Example 115] | <50.0
< 30 | > 30 | < 100 | CCCCCC(C)C(=O)Nc1cc(N)cc(-c2cnc(NC(C)C)c(=O)n2CC(=O)NCc2ccc(C(=N)N)cc2)c1 (centres unmarked) [Example 138] | 
> 30 | > 30 | > 100 | COc1cc(N)cc(-c2cnc(NC(C)C)c(=O)n2CC(=O)NCc2cc(O)c(C(=N)N)c(F)c2)c1 [Example 168] | 
> 30 | > 30 | < 100 | CC[C@H](C)NC(=O)c1cc(N)cc(-c2cnc(NC(C)C)c(=O)n2CC(=O)NCc2ccc(C(=N)N)c(O)c2F)c1 [Example 173] | 
> 30 | > 30 | > 100 | CC(C)Nc1ncc(-c2cc(N)cc(O)c2)n(CC(=O)NCc2cc(O)c(C(=N)N)c(F)c2)c1=O [Example 180] | 
< 30 | > 30 | < 100 | CC[C@H](C)NC(=O)c1cc(N)cc(-c2cnc(NC3CC3)c(=O)n2CC(=O)NCc2ccc(C(=N)N)cc2)c1 [Example 183] | 
> 30 | > 30 | > 100 | CC[C@H](C)NC(=O)c1cc(N)cc(-c2cnc(NC(C)C)c(=O)n2CC(=O)NCc2c(OC)cc(C(=N)N)cc2OC)c1 [Example 196] | 
> 30 | > 30 | < 100 | COCCOCCOCCOC(=O)c1cc(N)cc(-c2cnc(NC(C)C)c(=O)n2CC(=O)NCc2ccc(C(=N)N)cc2)c1 [Example 200] | 
> 30 | > 30 | < 100 | CC(C)Nc1ncc(-c2cc(N)cc(OC(C)C(=O)O)c2)n(CC(=O)NCc2ccc(C(=N)N)cc2)c1=O (centres unmarked) [Example 226] | 
< 30 | > 30 | < 100 | CC[C@@H](C)NC(=O)c1cc(N)cc(-c2cnc(NC3CC3)c(=O)n2CC(=O)NCc2ccc(C(=N)N)cc2)c1 [Example 258] | 
